Biological target: T1, TRPC5-SYFP2 (Homo sapiens, UniProt Q9UL62)
T1 construct: expressed in transfected cells; host or cells: HEK 293 (ATCC CRL 1573), transiently transfected (jetPRIME)
T1 sequence (Q9UL62 1-973): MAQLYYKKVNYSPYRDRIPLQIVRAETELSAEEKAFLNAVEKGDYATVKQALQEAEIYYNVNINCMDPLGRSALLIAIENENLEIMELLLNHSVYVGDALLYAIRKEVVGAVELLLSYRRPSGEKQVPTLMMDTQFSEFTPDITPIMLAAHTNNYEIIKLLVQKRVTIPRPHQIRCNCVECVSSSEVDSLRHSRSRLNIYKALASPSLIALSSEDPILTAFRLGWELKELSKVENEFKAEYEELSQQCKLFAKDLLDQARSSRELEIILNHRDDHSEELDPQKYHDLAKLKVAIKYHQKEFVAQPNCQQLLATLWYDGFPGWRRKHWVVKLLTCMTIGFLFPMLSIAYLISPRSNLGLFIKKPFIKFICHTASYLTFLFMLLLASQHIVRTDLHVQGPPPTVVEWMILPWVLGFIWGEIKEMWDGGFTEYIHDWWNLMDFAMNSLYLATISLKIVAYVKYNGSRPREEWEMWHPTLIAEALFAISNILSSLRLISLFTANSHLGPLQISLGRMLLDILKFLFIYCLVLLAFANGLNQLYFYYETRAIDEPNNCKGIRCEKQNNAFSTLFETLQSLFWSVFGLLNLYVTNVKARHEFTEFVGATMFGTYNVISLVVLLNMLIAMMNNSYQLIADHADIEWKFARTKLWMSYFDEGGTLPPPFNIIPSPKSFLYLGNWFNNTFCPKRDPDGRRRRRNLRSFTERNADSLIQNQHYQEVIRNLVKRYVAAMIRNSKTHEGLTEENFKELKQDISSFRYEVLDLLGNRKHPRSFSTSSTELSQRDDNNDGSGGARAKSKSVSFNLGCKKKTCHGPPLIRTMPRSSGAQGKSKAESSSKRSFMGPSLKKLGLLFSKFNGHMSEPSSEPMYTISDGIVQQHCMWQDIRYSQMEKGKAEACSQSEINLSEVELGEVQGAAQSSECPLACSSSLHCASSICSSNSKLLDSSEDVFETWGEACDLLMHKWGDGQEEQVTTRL
Experiment: Fura-2 [Ca2+]i recordings, HEK 293 transiently expressing TRPC5-SYFP2
Assay type: cell-based
Settings: 10-1000 nM; compound plate illuminated at 380 nm; EA 100 nM as maximum
From the text: Müller, Niemeyer, et al., Schaefer & Thorn-Seshold 2025: Ideal Efficacy Photoswitching of TRPC4/5 in Tissue […]
1.4.4 Differences and selectivity between TRPC5 and TRPC4?
AM237 activates TRPC5 but inhibits EA mediated activation of TRPC4; Pico145 inhibits both TRPC4 and TRPC5. Thus, somewhat naively, it could be argued that it is the para substituent here which affects both the efficacy mode and the selectivity for TRPC4 and/or TRPC5.
Intriguingly, Z-AzPico activates TRPC4 and TRPC5 with low nanomolar potency whereas Z-AzHC only activates TRPC5 but not TRPC4. Therefore, the meta substituent is now responsible for the selectivity in this case. The cryo-EM structures of Pico145 and HC-070 in complex with TRPC5 indicated the same binding site but the southern phenyl ring bearing the OCF3/Cl group is flipped and pointing in opposite directions.
Z isomers, i.e. Z-buried vs. E-projected. Additionally, both E-AzPico and E-AzHC inhibit EA […]
It is not surprising that both ligands bind to either protein because there is a high sequence similarity among the TRPC family in the identified binding pocket for Pico145 /HC-070, and in the binding region, human TRPC4/5 differ only by a single amino acid (TRPC5: V579, TRPC4: I579). We […]
the result of differences in this residue. […]
Intracellular calcium ([Ca2+]i) was measured using the ratiometric Ca2+ dye Fura-2. […]

For `Cn1c(=O)n(CCCO)c(=O)c2c1nc(Oc1ccc(Cl)c(OC(F)(F)F)c1)n2Cc1ccc(Cl)cc1` [AM237, reference compound], the “Effect on [Ca2+]i, TRPC5” value was “partial agonists”.

In the case of `Cn1c(=O)n(CCCO)c(=O)c2c1nc(Oc1ccc(/N=N\c3ccccc3)c(Cl)c1)n2Cc1ccc(Cl)cc1` [Z*-AzHC], the “Effect on [Ca2+]i, TRPC5” value is reported as “partial agonists”.

From article PMC12858405, “Ideal efficacy photoswitching for chromocontrol of TRPC4/5 channel functions in live tissues” (Nature Chemical Biology, 2026)
